System: Helicobacter pylori
Assay: Dual therapy of AGN 201904 with amoxicillin to treat H. pylori infection
Format: in vivo
Conditions: AGN 201904 with amoxicillin alone (dual therapy), compared to standard H. pylori infection therapies

**Q.** With `COc1ccc2c(c1)nc([S+]([O-])Cc1ncc(C)c(OC)c1C)n2S(=O)(=O)c1ccc(OCC(=O)O)cc1` (centres unmarked) [AGN 201904] as the molecule, how does the “H. pylori eradication rate” value read?
**A.** higher eradication rate

**Q.** And the H. pylori resistance?
**A.** no H. pylori resistance

Source: patent US20180021319A1, “COMPOSITIONS AND METHODS FOR TREATING GASTROINTESTINAL INFECTIONS” (The Regents of the University of California, priority 2015, published 2018)
